Structures are written as SMILES. Counter-ions that a name gives are not always drawn. Like-named read-outs stand apart in the source and are kept apart here.

One assay relates to HT-22 cells. In words: Protective effect on HT-22 cell damage caused by L-glutamate monosodium salt. The format is cell-based, mouse. The conditions noted are these: 15 mM L-glutamate. The method, then: (§1) Well-proliferated HT-22 cells, derived from mouse hippocampal neuronal cells in logarithmic growth phase, were selected, and they were counted after being subjected to trypsin digestion and dispersion. The cell density was adjusted with DMEM/F12 medium (containing 10% FBS and 1% double antibody). The cells were then inoculated in a 96-well plate at a density of 2,000 cells per well, and cultured in a cell incubator at 37° C. in atmosphere containing 5% CO2 for 24 hours. For the control group and the L-glutamate monosodium salt group (model group), serum-free DMEM/F12 medium was added, and the other wells were added with tested compounds of different concentrations; except that the serum-free DMEM/F12 medium was added to the control group. L-glutamate monosodium salt solution at the final concentration of 15 mM was added to the remaining wells. After 24 hours, the cell viability was detected with a luminescent cell viability assay kit.
as §1, with “group,” for “group.”
as §1, with “2.000” for “2,000”, “group,” for “group.”

In another assay the test system is Nrf2. In words: Nrf2 protein level in the nucleus of HT-22 cells, Western Blot. The format is cell-based, mouse. The conditions noted are these: 1.25 μM and 0.625 μM, 24 hours, vs control group. The text has this: (§2) As a transcription factor, Nrf2 needs to enter the nucleus and combine with ARE sequence to play a role in transcriptional activation. Therefore, Nrf2 protein level in the nucleus is an important prerequisite for the activation of Nrf2 signaling pathway. NQO-1 and HO-1 are target genes regulated by Nrf2, and the increase of their protein levels is an important sign of activation of the Nrf2 signaling pathway.
(§3) HT-22 cells in logarithmic growth phase were selected, the culture medium was discarded, the cells were digested with 0.25% Trypsin containing EDTA, and cell suspension was made. Cell density was adjusted to 50000/ml with DMEM/F12 medium (containing 10% FBS and 1% double antibody) and it was inoculated to 6-well plate, with 2000 μL/well, the number of cells per well was 100, 000, and the cells were cultured in a cell incubator at 37° C. in an atmosphere containing 5% CO2 for 24 hours. Then, the medium of each well was replaced with new 1980 μL DMEM/F12 medium. […] After 24 hours, the cells were collected, nuclear protein and cytoplasmic protein were extracted, and the level of Nrf2 in the nucleus and the expression of NQO-1 and HO-1 in cytoplasm were detected by Western Blot.
(A western blot detects proteins with antibodies after separation by electrophoresis.)

The test system of a further assay is NQO-1. In words: NQO-1 expression in HT-22 cytoplasm, Western Blot. Type of assay: cell-based, mouse. The note with it: HT-22 cells, 1.25 μM and 0.625 μM, 24 hours, vs control group.
Excerpt: as §2, §3

The test system of another assay is HO-1. The experiment in a line: HO-1 expression in HT-22 cytoplasm, Western Blot. The format is cell-based, mouse. The conditions noted are these: HT-22 cells, 1.25 μM and 0.625 μM, 24 hours, vs control group.
Excerpt: as §2, §3

Another assay deals with SH-SY5Y cells. In words: Protective effect on SH-SY5Y cell damage caused by oxygen-glucose deprivation/reperfusion. Type of assay: cell-based. The conditions noted are these: OGD 4 hours then 24 hours, CCK-8, model 56.83. On the procedure:
SH-SY5Y cells in logarithmic growth phase were selected, the culture medium was discarded, the cells were digested with 0.25% Trypsin containing EDTA, and cell suspension was made. Cell density was adjusted to 30,000/ml with DMEM/F12 medium (containing 10% FBS and 1% double antibody) and it was inoculated to 96-well plate, 100 μL/well, the number of cells per well was 3,000, and the cells were cultured in a cell incubator at 37° C. in an atmosphere containing 5% CO2 for 24 hours. After 24 hours, the cells were washed twice with the Earle's solution. For the control group, 100 μL oxygenated Earle's solution was added in each well, and for the remaining groups, 100 μL oxygen-free Earle's solution after nitrogen bubbling was added, and the oxygen content in an anoxic chamber was kept below 0.5%, and models were made in the cell incubator for 4 hours. […] After 24 hours, CCK-8 cell viability test kit was used to detect the cell viability.

Assay [1] concerns MPTP-induced Parkinson's disease mouse. In words: Pole-climbing test, MPTP-induced Parkinson's disease mouse. The format is in vivo. The conditions noted are these: L-DOPA 10 mg/kg qd intragastric, 40 days; vs model group, p<0.0001. On the procedure:
(§4) Male C57 mouse were screened for their motor function by a mouse rod-rotating test, and unqualified ones were excluded from the test. […] MPTP was injected subcutaneously every 4 days in the model group and the drug administration group with a dosage of 25 mg/kg for 40 consecutive days. Each group of I-5 was administered once a day at 8:00 am and 8:00 pm (by intragastric administration), twice in total. […] The intragastric volume was 0.1 ml/10 g body weight, and the behavior test was started 40 days later. […] The storage time of the prepared liquid medicine was not more than 24 hours.
A climbing pole in the pole-climbing test was a rough wooden pole with a diameter of 2 cm and a length of 50 cm. The bottom of the wooden pole was located in the mouse home cage and was vertically oriented. When the mouse was placed on top of the wooden pole, it would naturally descend to the bottom of the wooden pole and reach the base of the pole. […] The mouse should have a pre-acclimation period of 2 days prior to the test, training five times a day. To the test day, the time required for the […] to reach the bottom (incubation period) was taken as an evaluation index to observe the effect of the tested compound on the motion ability of the mouse.

A further assay relates to α-synuclein protein. In words: α-synuclein protein level in midbrain, Western blot, MPTP mouse. The format is in vivo. The note with it: L-DOPA 10 mg/kg; p>0.05. The text has this: (§5) The core pathological change of Parkinson's disease is the loss of dopaminergic neurons. Tyrosine hydroxylase (TH), the rate-limiting enzyme in dopamine synthesis, is the landmark protein of the dopaminergic neurons. Therefore, the decrease in its level indicates the loss of the dopaminergic neurons. A key protein for the occurrence and development of Parkinson's disease is α-synuclein protein, and the abnormal modification (hyperphosphorylation) of this protein can inhibit microtubule polymerization, enhance oxidative stress, and thus accelerate the death of the dopaminergic neurons.
Male C57 mouse were screened for their motor function by a mouse rod-rotating test, and unqualified ones were excluded from the test. […] MPTP was injected subcutaneously every 4 days in the model group and the drug administration group with a dosage of 25 mg/kg for 40 consecutive days. Each group of I-5 was administered once a day at 8:00 am and 8:00 pm (by intragastric administration), twice in total. […]
Tissues from all the animals were collected on the second day after the end of the behavioral experiment. […] The level of tyrosine hydroxylase (TH), a marker protein of dopaminergic neurons, was detected by immumohistochemistry, and α-synuclein protein level and phosphorylation level of the protein were detected by Western blot.

Assay [2] concerns MPTP-induced Parkinson's disease mouse. In words: Rotarod test, MPTP-induced Parkinson's disease mouse. The format is in vivo. The conditions noted are these: L-DOPA 10 mg/kg qd; vs model group, p<0.0001. On the procedure: as §4
On the first day, the mouse acclimated to a rotating speed of 5 rpm for two times, each time for 5 minutes. On the second day, the rotarod turned at a speed of 10 rpm, the mouse acclimated to the speed for two times, each time for 5 minutes. On the third day, the rotarod turned at a speed of 15 rpm, the mouse acclimated to the speed for two times, each time for 3 minutes. On the fourth day, a behavioral test was started. The rotarod turned at a speed of 15 rpm for a period of 3 minutes. The time mouse spent on the rotarod (fall latency) was taken as an index for evaluation of their motor coordination. The test was repeated three times for each animal, with an interval of 30 minutes to eliminate the interference of exercise fatigue on the motion ability of animals.

The subject of another assay is p-synuclein. In words: Phosphorylated α-synuclein (p-synuclein) level in midbrain, Western blot, MPTP mouse. Type of assay: in vivo. The note with it: L-DOPA 10 mg/kg; p>0.05.
Excerpt: as §5, §4
Tissues from all the animals were collected on the second day after the end of the behavioral experiment. Hearts from six animals in each group were perfused and fixed with paraformaldehyde for pathological analysis of paraffin sections. Brain tissue of the remaining animals was separated on ice, and brain areas (midbrain) related to Parkinson's disease were collected. After being frozen with liquid nitrogen, they were stored in a refrigerator at −80° C. for protein analysis. The level of tyrosine hydroxylase (TH), a marker protein of dopaminergic neurons, was detected by immumohistochemistry, and α-synuclein protein level and phosphorylation level of the protein were detected by Western blot.

On to `Cc1csc(/C=C/C#N)n1` [Compound I-30], for which the “protection of HT22 cells against L-glutamate monosodium salt damage, in words” value in the assay with HT-22 cells (HT22 cells, comparison with positive control drug DMF) is reported as “perform better than the positive control drug DMF”.
As to `COC(=O)/C=C/C(=O)OC` [DMF, dimethyl fumarate, reference compound], in the assay with Nrf2, the “protein level of Nrf2 in the nucleus” value is given as “no statistical difference”. Further, the viability at 0.078 µM worked out at 37.6% in the assay with HT-22 cells (Mus musculus, HT-22, 24 h, Table 1, Conc 0.078 μm, 24 hours, L-Glu alone 27.73 (I-5 32.92), read-out: cell viability) and 34.3% in the assay with HT-22 cells (Mus musculus, HT-22, 24 h, Table 2, Conc 0.078 μM, 24 hours, L-Glu alone 27.83, read-out: Visibility %). Also, the viability at 0.156 µM is 47.5% with HT-22 cells (Mus musculus, HT-22, 24 h, Table 1, Conc 0.156 μm, 24 hours, L-Glu alone 27.73 (I-5 32.92), read-out: cell viability) and 34.9% in the assay on HT-22 cells (Mus musculus, HT-22, 24 h, Table 2, Conc 0.156 μM, 24 hours, L-Glu alone 27.83, read-out: Visibility %). In addition, the viability at 0.313 µM in the assay on HT-22 cells (Mus musculus, HT-22, 24 h, Table 1, Conc 0.313 μm, 24 hours, L-Glu alone 27.73 (I-5 32.92), read-out: cell viability) was 52.8%. Also, in the assay on HT-22 cells (Mus musculus, HT-22, 24 h, Table 1, Conc 0.625 μm, 24 hours, L-Glu alone 27.73 (I-5 32.92), read-out: cell viability), the viability at 0.625 µM is 60%. In addition, the viability at 1.25 µM with HT-22 cells (Mus musculus, HT-22, 24 h, Table 1, Conc 1.25 μm, 24 hours, L-Glu alone 27.73 (I-5 32.92), read-out: cell viability) is 53.3%. The viability at 2.5 µM in the assay with HT-22 cells (Mus musculus, HT-22, 24 h, Table 1, Conc 2.5 μm, 24 hours, L-Glu alone 27.73 (I-5 32.92), read-out: cell viability) stood at 63.6%. Moreover, the viability at 10 µM in the assay with HT-22 cells (Mus musculus, HT-22, 24 h, Table 1, Conc 10 μm, 24 hours, L-Glu alone 27.73 (I-5 32.92), read-out: cell viability) was 70.2%. Besides, the “protein level of NQO-1” value in the assay with NQO-1 is given as “no statistical difference”. For the same molecule, the “protein level of HO-1” value in the assay on HO-1 is on record as “no statistical difference”.
Regarding `CC1=NN(c2ccccc2)C(=O)C1` [Edaravone, reference compound], the results for the Visibility % in the assay with SH-SY5Y cells (Conc 0.078 μM), with SH-SY5Y cells (Conc 0.156 μM) and in the assay with SH-SY5Y cells (Conc 10 μM) were 59.41%, 62.42% and 67.39%, respectively.
Take `N#C/C=C/c1ccccn1` [I-5 HCl]: the Visibility % is 67.72% in the assay on SH-SY5Y cells (Conc 0.078 μM), 67.82% in the assay on SH-SY5Y cells (Conc 0.156 μM), 69.35% in the assay with SH-SY5Y cells (Conc 0.313 μM) and 74.72% in the assay with SH-SY5Y cells (Conc 0.625 μM).
Regarding `N[C@@H](Cc1ccc(O)c(O)c1)C(=O)O` [L-DOPA, levodopa, reference compound], the “latency of mouse reaching the base of the pole” value in assay [1] is reported as “significantly shorten the latency”. In addition, the “α-synuclein protein level in the midbrain” value in the assay on α-synuclein protein was “no significant effect”. The “fall latency in the Rotarod test” value in assay [2] is on record as “significantly prolonged”. In the assay on p-synuclein, the “p-synuclein protein level in the midbrain” value was “no significant effect”.

These data come from patent US20230285372A1, “Pharmaceutical use of (E)-3-arylheterocyclylprop-2-enoic acid derivatives” (MEDCURIUS INC., priority 2020, published 2023).
